Read-outs that look alike come from different tables or passages of the source.
Key:
[1] = test system: Aβ40 in conditioned medium of cells stably expressing Amyloid Precursor Protein (APP); test: In vitro BACE cell-based assay (Aβ40 in conditioned medium, sandwich ELISA); conditions: Homo sapiens
In short: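 Secreted Aβ40 is captured with pAb40 and detected with biotinylated 6E10, read by europium time-resolved fluorescence. IC50 comes from percent inhibition versus concentration.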

[2] = target: Beta Secretase enzyme (BACE) (Homo sapiens, UniProt P56817); test: In vitro enzymatic BACE FRET (fluorescence resonance energy transfer) assay; format: biochemical
Beta Secretase enzyme (BACE), sequence (P56817 46-501, species assumed): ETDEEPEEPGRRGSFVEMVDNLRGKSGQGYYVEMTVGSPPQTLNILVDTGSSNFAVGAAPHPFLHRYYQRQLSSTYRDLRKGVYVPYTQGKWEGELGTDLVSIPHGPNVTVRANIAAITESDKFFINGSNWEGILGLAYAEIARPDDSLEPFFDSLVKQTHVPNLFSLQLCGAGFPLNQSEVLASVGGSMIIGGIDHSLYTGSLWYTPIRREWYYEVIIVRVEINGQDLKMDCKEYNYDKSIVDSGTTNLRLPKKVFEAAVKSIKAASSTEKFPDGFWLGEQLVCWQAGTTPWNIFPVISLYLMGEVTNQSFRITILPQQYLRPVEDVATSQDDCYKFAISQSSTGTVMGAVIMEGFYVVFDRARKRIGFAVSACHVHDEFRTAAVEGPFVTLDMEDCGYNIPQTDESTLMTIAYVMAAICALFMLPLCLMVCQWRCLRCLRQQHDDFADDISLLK
In short: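 Fluorescence read after Tris quench to neutral pH. Reaction: 50 nM fluorophore/quencher peptide substrate, 1 h, in 0.05 M acetate pH 4.2, 10% DMSO final, 100 uM genapol.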

[3] = test system: Abeta 40 in cerebrospinal fluid (CSF) and brain; test: In vivo inhibition of beta-secretase (Abeta 40 reduction in CSF and brain); conditions: rat, after 4 hrs; for inhibition in vivo at 10 mg/kg: Abeta 40, 10 mg/kg (10 mpk); for inhibition in vivo at 3 mg/kg: Abeta 40, 3 mpk
[4] = HEK293, average IC50, read-out: HEK cell assay
[5] = average IC50, enzyme assay, read-out: BACE 1 FRET assay
[6] = CSF, read-out: CSF A-beta reduction % at 10 mg/kg
[7] = brain, read-out: Brain A-beta reduction % at 10 mg/kg
[8] = HEK293, average IC50, HEK cells, read-out: HEK cell assay
[9] = CSF, read-out: CSF A-beta reduction % at 3 mpk
[10] = brain, read-out: Brain A-beta reduction % at 3 mpk

SMILES | IC50 [1, 4] | IC50 [2, 5] | IC50 [1, 8] | inhibition in vivo at 10 mg/kg [3, 6] | inhibition in vivo at 10 mg/kg [3, 7] | inhibition in vivo at 3 mg/kg [3, 9] | inhibition in vivo at 3 mg/kg [3, 10] | IC50 ([1]; HEK293, read-out: HEK cell assay (uM), average IC50, HEK cell assay) | IC50 ([2]; BACE 1 FRET assay (uM))
NC1=N[C@@]2(CO1)c1cc(-c3cccnc3)ccc1Oc1cnc(N3CCC(F)(F)CC3)cc12 [Example 402, (5S)-3-(4,4-difluoro-1-piperidinyl)-7-(3-pyridinyl)spiro[chromeno[2,3-c]pyridine-5,4′-[1,3]oxazol]-2′-amine] | – | 0.0024 µM | 0.0131 µM | 52% | 28% | – | – | – | –
NC1=N[C@@]2(CO1)c1cc(-c3cncc(F)c3)ccc1Oc1cnc(N3CCC(F)(F)CC3)cc12 [Example 414, (5S)-3-(4,4-difluoro-1-piperidinyl)-7-(5-fluoro-3-pyridinyl)spiro[chromeno[2,3-c]pyridine-5,4′-[1,3]oxazol]-2′-amine] | – | 0.0015 µM | 0.0136 µM | 64% | 44% | – | – | – | –
NC1=N[C@@]2(CO1)c1cc(-c3c(F)ccnc3F)ccc1Oc1cnc(C3=CCOCC3)cc12 [Example 89, (5S)-7-(2,4-difluoro-3-pyridinyl)-3-(3,6-dihydro-2H-pyran-4-yl)spiro[chromeno[2,3-c]pyridine-5,4′-[1,3]oxazol]-2′-amine] | – | – | – | 80% | 69% | – | – | 0.0047 µM | 0.0007 µM
CC1(C#Cc2cnc3c(c2)[C@]2(COC(N)=N2)c2cc(-c4cccc(C#N)c4)ccc2O3)COC1 [Example 127, (S)-3-(2′-amino-3-((3-methyloxetan-3-yl)ethynyl)-5′H-spiro[chromeno[2,3-b]pyridine-5,4′-oxazole]-7-yl)benzonitrile] | 0.005 µM | 0.0011 µM | – | 61% | 45% | – | – | – | –
Cc1ccc(-c2cc(F)c3c(c2)[C@]2(COC(N)=N2)c2cc(OCC(C)(C)C#N)ccc2O3)cn1 [Example 443, (S)-3-(2-amino-4′-fluoro-2′-(6-methylpyridin-3-yl)-5H-spiro[oxazole-4,9′-xanthene]-7′-yloxy)-2,2-dimethylpropanenitrile] | – | 0.005 µM | 0.0116 µM | 35% | 7% | – | – | – | –

More lines, main results first:

IC50 [1, 4] | IC50 [2, 5] | IC50 [1, 8] | SMILES | inhibition in vivo at 10 mg/kg [3, 6] | inhibition in vivo at 10 mg/kg [3, 7] | inhibition in vivo at 3 mg/kg [3, 9] | inhibition in vivo at 3 mg/kg [3, 10] | IC50 ([1]; HEK293, read-out: HEK cell assay (uM), average IC50, HEK cell assay) | IC50 ([2]; BACE 1 FRET assay (uM))
0.007 µM | 0.0004 µM | – | NC1=N[C@@]2(CS1)c1cc(-c3cccnc3F)ccc1Oc1c2cc(C2CCOCC2)nc1F [Example 1029, (S)-1-fluoro-7-(2-fluoropyridin-3-yl)-3-(tetrahydro-2H-pyran-4-yl)-5′H-spiro[chromeno[2,3-c]pyridine-5,4′-thiazol]-2′-amine] | 83% | 73% | – | – | – | –
– | 0.0005 µM | 0.01 µM | NC1=N[C@@]2(CO1)c1cc(-c3cccnc3F)c(F)cc1Oc1c(F)cc(N3CCOCC3)cc12 (single isomer, unassigned) [Example 869] | 61% | 44% | – | – | – | –
0.014 µM | 0.0004 µM | – | NC1=N[C@@]2(CS1)c1cc(-c3cccnc3F)ccc1Oc1c(F)cc(N3CCC(F)(F)CC3)cc12 [Example 1076, (S)-2′-(4,4-difluoropiperidin-1-yl)-4′-fluoro-7′-(2-fluoropyridin-3-yl)-5H-spiro[thiazole-4,9′-xanthen]-2-amine] | 63% | 33% | – | – | – | –
0.015 µM | 0.0003 µM | – | CC(C)(F)COc1cc(F)c2c(c1)[C@]1(CSC(N)=N1)c1cc(-c3cccnc3F)ccc1O2 [Example 1067, (S)-4′-fluoro-2′-(2-fluoro-2-methylpropoxy)-7′-(2-fluoropyridin-3-yl)-5H-spiro[thiazole-4,9′-xanthen]-2-amine] | 69% | 55% | – | – | – | –
– | 0.0003 µM | 0.01 µM | N#Cc1cccc(-c2ccc3c(c2)[C@@]2(COC(N)=N2)c2cc(N4CCOCC4)nc(F)c2O3)c1 [Example 894, 3-((5S)-2′-amino-1-fluoro-3-(4-morpholinyl)spiro[chromeno[2,3-c]pyridine-5,4′-[1,3]oxazol]-7-yl)benzonitrile] | 75% | 69% | – | – | – | –
– | 0.0004 µM | 0.008 µM | NC1=N[C@@]2(CS1)c1cc(-c3cccnc3F)ccc1Oc1cnc(C3=CCCOC3)cc12 [Example 928, (S)-3-(5,6-dihydro-2H-pyran-3-yl)-7-(2-fluoropyridin-3-yl)-5′H-spiro[chromeno[2,3-c]pyridine-5,4′-thiazol]-2′-amine] | 82% | 71% | – | – | – | –
– | 0.0006 µM | 0.006 µM | NC1=N[C@@]2(CO1)c1cc(-c3c(F)ccnc3F)ccc1Oc1cnc(C3=CCCOC3)cc12 [Example 676, (5S)-7-(2,4-difluoro-3-pyridinyl)-3-(5,6-dihydro-2H-pyran-3-yl)spiro[chromeno[2,3-c]pyridine-5,4′-[1,3]oxazol]-2′-amine] | – | – | 76% | 74% | – | –
– | 0.0004 µM | 0.009 µM | NC1=N[C@@]2(CO1)c1cc(-c3cncc(F)c3)ccc1Oc1c2cc(N2CCC(F)(F)C2)nc1F [Example 922, (S)-3-(3,3-difluoropyrrolidin-1-yl)-1-fluoro-7-(5-fluoropyridin-3-yl)-5′-H-spiro[chromeno[2,3-c]pyridine-5,4′-oxazol]-2′-amine] | – | – | 69% | 57% | – | –

Reference: patent US8883782B2, “Spiro-tetracyclic ring compounds as beta-secretase modulators and methods of use” (Amgen Inc., priority 2010, dated 2014)
